System: host cell cytotoxicity, % cell control, 5% serum
Test: viability loss in CCR5-tropic fusion assay cells – cell-based, 5% serum, set 2, cytotoxicity control for HIV-1 antiviral lead project, dose response (AID 504573)

Row | Structure (SMILES) | CC50 [µM]
1 | Cc1c2c(=O)n(-c3nc4ccccc4s3)nc-2cc(O)n1Cc1ccc(F)cc1 | 4.4
2 | Cc1c2c(=O)n(-c3nc4ccccc4s3)nc-2cc(O)n1Cc1cccs1 | 5.94
3 | COc1ccccc1Cn1c(O)cc2nn(-c3nc4ccccc4s3)c(=O)c-2c1C | 8.08
4 | Cc1c2c(=O)n(-c3nc4ccccc4s3)nc-2cc(O)n1CCc1cccs1 | 5.51
5 | Cc1c2c(=O)n(-c3nc4ccccc4s3)nc-2cc(O)n1CCC(C)C | 5.64
6 | COc1ccc(Cn2c(O)cc3nn(-c4nc5ccccc5s4)c(=O)c-3c2C)cc1 | 5.15
7 | Cc1c2c(=O)n(-c3nc4ccccc4s3)nc-2cc(O)n1Cc1ccccc1 | 5.4
8 | COc1ccc(CCn2c(O)cc3nn(-c4nc5ccccc5s4)c(=O)c-3c2C)cc1 | 7.2
9 | Cc1c2c(=O)n(-c3nc4ccccc4s3)nc-2cc(O)n1Cc1ccccc1Cl | 4.34
10 | Cc1c2c(=O)n(-c3nc4ccccc4s3)nc-2cc(O)n1C1CC1 | 4.98
11 | Cc1c2c(=O)n(-c3nc4ccccc4s3)nc-2cc(O)n1Cc1cccnc1 | 3.89
12 | Cc1c2c(=O)n(-c3nc4ccccc4s3)nc-2cc(O)n1CCc1ccc(O)cc1 | 3.74
13 | Cc1c2c(=O)n(-c3nc4ccccc4s3)nc-2cc(O)n1Cc1ccncc1 | 5.07

— PubChem BioAssay AID504573 (Southern Research Specialized Biocontainment Screening …, 2011)
